In patent publication US20230399320A1, “NOVEL CAPSID ASSEMBLY INHIBITOR” (Pelemed Co., Ltd., priority 2020, published 2023):
Like-named read-outs stand apart in the source and are kept apart here.

Experiments:
[1] = target: T1, Cp149 (truncated form of a HBV core protein) (Hepatitis B virus genotype D subtype ayw, UniProt P03146); assay: Protein based assay: immunoblot analysis of in vitro HBV capsid assembly; assay type: biochemical; details: for inhibition at 0.1 µM: read-out: Protein based assay (% inhibition), 0.1 μM; for inhibition at 1 µM: read-out: Protein based assay (% inhibition), 1 μM
T1 construct: Cp149 (amino acids 1-149) is a truncated form of a HBV core protein; histidine tag (cleaved yes); made in house; host or cells: Escherichia coli BL21(DE3)
T1 sequence (P03146 1-149): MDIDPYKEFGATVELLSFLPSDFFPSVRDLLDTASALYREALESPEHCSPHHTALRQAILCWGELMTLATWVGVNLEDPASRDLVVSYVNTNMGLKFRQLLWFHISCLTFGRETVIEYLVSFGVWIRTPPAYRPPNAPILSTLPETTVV
Method: Cp149 (amino acids 1-149) is a truncated form of a HBV core protein. It was expressed in Escherichia coli, and the expressed protein was purified. The recombinant Cp149 was expressed in E. coli BL21(DE3) cells cultured in LB medium at 37° C. When the culture reached an OD600 of 0.7 to 0.8, expression of the culture was induced with 0.5 mM isopropyl-β-d-thiogalactopyranoside and the culture was cooled to 16° C. After 16 hours, the cells were harvested, flash-frozen in liquid nitrogen, and stored at −80° C. To purify Cp149, thawed cells were resuspended in lysis buffer (20 mM Tris-HCl pH 9.0, 200 mM NaCl, 10 mM imidazole, 10 μg per mL DNaseI, 1 mM phenylmethylsulfonyl fluoride), and treated with ultrasonic waves. The supernatant was loaded onto Ni-NTA affinity resin. Proteins were eluted using a 20 mM to 500 mM imidazole gradient dissolved in lysis buffer. After removing the histidine tag with thrombin, the protein was further purified by HiTrap Q anion exchange chromatography (17115401, GE Healthcare).
To determine the effect on in vitro Cp149 assembly, compounds of the present invention were added to the Cp149-containing suspension. The final concentration of Cp149 was 1 mg per mL, and the compounds of the present invention were added at concentrations of 0.1 to 10 μM. The suspension was mixed with reaction buffer (150 mM HEPES, pH 7.5, 15 mM NaCl) added in a 2:1 ratio. In vitro assembly was performed at 37° C. for 1 hour, and HBV capsid was detected by immunoblot analysis using an anti-HBV core antibody (1:2000, B0586, Dako).

[2] = test system: HBV DNA; assay: Quantitative PCR for measuring HBV DNA in cells (HBV DNA quantification); assay type: cell-based
Method: After treating cells with the indicated compounds, HBV DNA secreted into the medium and intracellular HBV DNA were extracted, purified, and quantified by quantitative PCR. To isolate the secreted HBV DNA, the culture medium was recovered and centrifuged at 15,000×g to remove debris. The medium was diluted 1:1 with phosphate-buffered saline (PBS), and 1 M NaOH solution was added to a final concentration of 0.1 M. The mixture was incubated at 37° C. for 1 hour. The protein was denatured by adding 2M Tris-HCl solution (pH 7.5) to a final concentration of 0.2 M and incubating at 98° C. for 5 minutes. The protein precipitation was removed by centrifugation at 15,000×g, and the supernatant was subjected to PCR with HBV DNA primer and probe sets:
Forward: 5′-[…]-3′, Reverse: 5′-[…]-3′, Probe: 5′-[…]-3′.

[3] = Hepatitis B virus; read-out: HBV DNA quantification (IC50 μM)
[4] = Hepatitis B virus, read-out: HBV DNA quantification (IC50 μM)

For `CS(=O)(=O)c1nc(Nc2cc(F)c(F)c(F)c2)cc(N2CCNCC2)n1` [Compound 26b, 2-(methylsulfonyl)-6-(piperazin-1-yl)-N-(3,4,5-trifluorophenyl)pyrimidin-4-amine], the inhibition at 0.1 µM [1] was 39%, the inhibition at 1 µM [1] was 92% and the IC50 [2, 3] was 0.203 µM.

In the case of `CS(=O)(=O)c1nc(Nc2ccc(F)c(Cl)c2)cc(N2CCNCC2)n1` [Compound 26c, N-(3-chloro-4-fluorophenyl)-2-(methylsulfonyl)-6-(piperazin-1-yl)pyrimidin-4-amine], the inhibition at 0.1 µM [1] is reported as 47%, the inhibition at 1 µM [1] is reported as 90% and the IC50 [2, 4] is reported as 0.189 µM.

`CS(=O)(=O)c1nc(Nc2ccc(F)c(Br)c2)cc(N2CCNCC2)n1` [Compound 26d, N-(3-bromo-4-fluorophenyl)-2-(methylsulfonyl)-6-(piperazin-1-yl)pyrimidin-4-amine] gave an inhibition at 0.1 µM [1] of 13%, an inhibition at 1 µM [1] of 98% and an IC50 [2, 3] of 0.547 µM.

`CS(=O)(=O)c1nc(Nc2cc(F)c(F)c(F)c2)cc(NC2CCNCC2)n1` [Compound 26e, 2-(methylsulfonyl)-N^4-(piperidin-4-yl)-N^6-(3,4,5-trifluorophenyl)pyrimidine-4,6-diamine] was tested, and the inhibition at 0.1 µM [1] was 16%, the inhibition at 1 µM [1] was 90% and the IC50 [2, 3] was 0.19 µM.

`CS(=O)(=O)c1nc(Nc2ccc(F)c(Cl)c2)cc(NC2CCNCC2)n1` [Compound 26f, N^4-(3-chloro-4-fluorophenyl)-2-(methylsulfonyl)-N^6-(piperidin-4-yl)pyrimidine-4,6-diamine] gave an inhibition at 0.1 µM [1] of 59%, an inhibition at 1 µM [1] of 95% and an IC50 [2, 4] of 0.199 µM.

Work on `CS(=O)(=O)c1nc(Nc2ccc(F)c(Br)c2)cc(NC2CCNCC2)n1` [Compound 26g, N^4-(3-bromo-4-fluorophenyl)-2-(methylsulfonyl)-N^6-(piperidin-4-yl)pyrimidine-4,6-diamine] yielded an inhibition at 0.1 µM [1] of 7%, an inhibition at 1 µM [1] of 97% and an IC50 [2, 3] of 0.536 µM.

With `CS(=O)(=O)c1nc(Nc2ccc(F)c(Cl)c2)cc(N2CCC(N)CC2)n1` [Compound 26i, 6-(4-aminopiperidin-1-yl)-N-(3-chloro-4-fluorophenyl)-2-(methylsulfonyl)pyrimidin-4-amine] the inhibition at 0.1 µM [1] was 52%, the inhibition at 1 µM [1] was 99% and the IC50 [2, 4] was 0.181 µM.

`CS(=O)(=O)c1nc(Nc2ccc(F)c(Br)c2)cc(N2CCC(N)CC2)n1` [Compound 26j, 6-(4-aminopiperidin-1-yl)-N-(3-bromo-4-fluorophenyl)-2-(methylsulfonyl)pyrimidin-4-amine] gave an inhibition at 0.1 µM [1] of 10%, an inhibition at 1 µM [1] of 98% and an IC50 [2, 3] of 0.48 µM.
